Data: US20260374754A1, “N-((ISOQUINOLIN-6-YL)METHYL)-1H-PYRAZOLE-4-CARBOXAMIDE DERIVATIVES AS PLASMA KALLIKREIN INHIBITORS FOR THE TREATMENT OF HEREDITARY ANGIODEMA” (Takeda Pharmaceutical Company Limited, priority 2022, published 2026)
Where a name gives a salt, the structure may show the parent alone.

Molecular target: human activated kallikrein enzyme (Homo sapiens, UniProt P03952)
Test: Inhibition of human activated plasma kallikrein, fluorogenic PFR-AMC substrate, 500 pM enzyme format
Assay type: biochemical
Settings: 500 pM activated kallikrein; 300 μM PFR-AMC; 30 min preincubation; 10 min room temperature; pH 7.5; read-out: Primary Dose Response Assay: Average EC50
Summary of the method: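 500 pM activated kallikrein preincubated 30 min at room temperature with inhibitors in pH 7.5 Tris/EDTA/NaCl buffer with PEG-400 and Triton X-100. Reaction started with 300 μM PFR-AMC, run 10 min at room temperature; AMC fluorescence read at ex 380/em 460 nm.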

Sequence of human activated kallikrein enzyme (P03952 391-638 limits assumed): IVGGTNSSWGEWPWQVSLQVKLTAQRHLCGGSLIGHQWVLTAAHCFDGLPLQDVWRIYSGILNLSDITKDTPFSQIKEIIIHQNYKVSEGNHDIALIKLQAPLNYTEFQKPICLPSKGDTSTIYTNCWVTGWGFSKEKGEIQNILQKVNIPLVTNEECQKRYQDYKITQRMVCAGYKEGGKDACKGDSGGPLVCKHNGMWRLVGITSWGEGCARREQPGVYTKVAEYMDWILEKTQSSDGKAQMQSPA
Sequence of human activated kallikrein enzyme (P03952 20-390 partner limits assumed): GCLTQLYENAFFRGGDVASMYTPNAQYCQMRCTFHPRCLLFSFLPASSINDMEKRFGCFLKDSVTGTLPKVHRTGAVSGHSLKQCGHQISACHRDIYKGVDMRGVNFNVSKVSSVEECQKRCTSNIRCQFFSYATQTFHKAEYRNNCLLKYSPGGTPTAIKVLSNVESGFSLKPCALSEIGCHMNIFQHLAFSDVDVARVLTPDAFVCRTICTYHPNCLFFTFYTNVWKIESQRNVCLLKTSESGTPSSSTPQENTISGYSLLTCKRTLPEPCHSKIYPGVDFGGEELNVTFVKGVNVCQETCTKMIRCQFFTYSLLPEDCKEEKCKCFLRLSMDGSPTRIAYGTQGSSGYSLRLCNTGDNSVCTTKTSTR

| EC50 [nM] | SMILES |
| --- | --- |
| 10 to 100 | Cc1cc2c(N)nccc2c(C)c1CNC(=O)c1cnn(Cc2ccc(CC(=O)Nc3ccccc3)cc2)c1 [Example 227, N-((1-amino-5,7-dimethylisoquinolin-6-yl)methyl)-1-(4-(2-oxo-2-(phenylamino)ethyl)benzyl)-1H-pyrazole-4-carboxamide] |
| < 1 | Cc1cc2c(N)nccc2c(C)c1CNc1nncc(NCc2ccc(Cn3cccn3)cc2)n1 [Example 376, N^5-(4-((1H-pyrazol-1-yl)methyl)benzyl)-N^3-((1-amino-5,7-dimethylisoquinolin-6-yl)methyl)-1,2,4-triazine-3,5-diamine] |
| 10 to 100 | Cc1cc2c(N)nccc2c(C)c1CNS(=O)(=O)c1cn(Cc2cn3cc(C4CC4)ccc3n2)nn1 [Example 491, N-((1-amino-5,7-dimethylisoquinolin-6-yl)methyl)-1-((6-cyclopropylimidazo[1,2-a]pyridin-2-yl)methyl)-1H-1,2,3-triazole-4-sulfonamide] |
| > 1000 | Cc1cc2c(N)nccc2c(C)c1CNc1cc(NCc2cn3cc(C4CC4)ccc3n2)cnc1C(=O)O [Example 497, 3-(((1-amino-5,7-dimethylisoquinolin-6-yl)methyl)amino)-5-(((6-cyclopropylimidazo[1,2-a]pyridin-2-yl)methyl)amino)picolinic acid] |
| 10 to 100 | Cc1cc2c(N)nccc2c(C)c1CNc1cc(NCc2ccc(OC(C)(C)C(=O)N(C)C)cc2)ncn1 [Example 354, 2-(4-(((6-(((1-amino-5,7-dimethylisoquinolin-6-yl)methyl)amino)pyrimidin-4-yl)amino)methyl)phenoxy)-N,N,2-trimethylpropanamide, formic acid salt] |
| < 1 | Cc1cc2c(N)nccc2c(C)c1CNC(=O)c1cnn(Cc2cn3cc(Br)c(Cl)cc3n2)c1 [Example 149, N-((1-amino-5,7-dimethylisoquinolin-6-yl)methyl)-1-((6-bromo-7-chloroimidazo[1,2-a]pyridin-2-yl)methyl)-1H-pyrazole-4-carboxamide] |
| 1 to 10 | COC(=O)C12CC1CN(C(=O)Cc1ccc(Cn3cc(C(=O)NCc4c(C)cc5c(N)nccc5c4C)cn3)cc1)C2 (stereo not shown) [Example 217, methyl 3-(2-(4-((4-(((1-amino-5,7-dimethylisoquinolin-6-yl)methyl)carbamoyl)-1H-pyrazol-1-yl)methyl)pheny1)acetyl)-3-azabicyclo[3.1.0]hexane-1-carboxylate] |
| 1 to 10 | Cc1cc2c(N)nccc2c(C)c1CNc1cc(NCc2cc3c(Cl)cccc3cn2)ncn1 [Example 328, N^4-((1-amino-5,7-dimethylisoquinolin-6-yl)methyl)-N^6-((5-chloroisoquinolin-3-yl)methyl)pyrimidine-4,6-diamine, formic acid salt] |
| < 1 | Cc1cc2c(N)nccc2c(C)c1CNC(=O)c1cnn(Cc2cn3ccc(C4CC4)cc3n2)c1 [Example 100, N-((1-amino-5,7-dimethylisoquinolin-6-yl)methyl)-1-((7-cyclopropylimidazo[1,2-a]pyridin-2-yl)methyl)-1H-pyrazole-4-carboxamide] |
| 100 to 1000 | Cc1cc2c(N)nccc2c(C)c1CNc1cc(NCc2ccccc2)ncn1 [Example 341, N^4-((1-amino-5,7-dimethylisoquinolin-6-yl)methyl)-N^6-benzylpyrimidine-4,6-diamine] |
| 100 to 1000 | Cc1cc2c(N)nccc2c(C)c1CNc1nccc2nnn(Cc3cn4cc(C5CC5)ccc4n3)c12 [Example 253, 6-(((3-((6-cyclopropylimidazo[1,2-a]pyridin-2-yl)methyl)-3H-[1,2,3]triazolo[4,5-c]pyridin-4-yl)amino)methyl)-5,7-dimethylisoquinolin-1-amine] |
| 1 to 10 | Cc1cc2c(N)nccc2c(C)c1CNc1cc(NCc2ccc3cnccc3c2)ncn1 [Example 320, N^4-((1-amino-5,7-dimethylisoquinolin-6-yl)methyl)-N^6-(isoquinolin-6-ylmethyl)pyrimidine-4,6-diamine] |
| < 1 | COCc1nn(Cc2cnc(N3CCCC3)nc2)cc1C(=O)NCc1c(C)cc2c(N)nccc2c1C [Example 162, N-((1-amino-5,7-dimethylisoquinolin-6-yl)methyl)-3-(methoxymethyl)-1-((2-(pyrrolidin-1-y1)pyrimidin-5-yl)methyl)-1H-pyrazole-4-carboxamide] |
| 10 to 100 | Cc1cc2c(N)nccc2c(C)c1CNC(=O)c1cnn(Cc2ccc(CC(=O)NCc3ccccc3)cc2)c1 [Example 229, N-((1-amino-5,7-dimethylisoquinolin-6-yl)methyl)-1-(4-(2-(benzylamino)-2-oxoethyl)benzyl)-1H-pyrazole-4-carboxamide] |
| > 1000 | Cc1cc2c(N)nccc2c(C)c1CNC(=O)c1cnn(C(CNC(=O)OC(C)(C)C)c2ccccc2)c1 (stereo not shown) [Example 181, tert-butyl (2-(4-(((1-amino-5,7-dimethylisoquinolin-6-yl)methyl)carbamoyl)-1H-pyrazol-1-yl)-2-phenylethyl)carbamate] |
| < 1 | C=Cc1cnc2ccc(Cn3cc(C(=O)NCc4c(C)cc5c(N)nccc5c4C)cn3)cc2c1 [Example 123, N-((1-amino-5,7-dimethylisoquinolin-6-yl)methyl)-1-((3-vinylquinolin-6-yl)methyl)-1H-pyrazole-4-carboxamide] |

| EC50 [nM] | SMILES |
| --- | --- |
| 1 to 10 | Cc1cc2c(N)nccc2c(C)c1CNC(=O)c1cnn(Cc2cn3cccc(C)c3n2)c1 [Example 54, N-((1-amino-5,7-dimethylisoquinolin-6-yl)methyl)-1-((8-methylimidazo[1,2-a]pyridin-2-yl)methyl)-1H-pyrazole-4-carboxamide] |
| < 1 | Cc1cc2c(N)nccc2c(C)c1CNC(=O)c1ccnc(Cc2ccc(Cn3cccn3)cc2)c1 [Example 183] |
| 1 to 10 | COc1ccc2nc(Cl)c(Cn3cc(C(=O)NCc4c(C)cc5c(N)nccc5c4C)cn3)cc2c1 [Example 109, N-((1-amino-5,7-dimethylisoquinolin-6-yl)methyl)-1-((2-chloro-6-methoxyquinolin-3-yl)methyl)-1H-pyrazole-4-carboxamide] |
| 1 to 10 | Cc1cc2c(N)nccc2c(C)c1CNc1cc(OCc2ccc(Cn3cccn3)cc2)ccn1 [Example I-454, 6-(((4-((4-((1H-pyrazol-1-yl)methyl)benzyl)oxy)pyridin-2-yl)amino)methyl)-5,7-dimethylisoquinolin-1-amine] |
| < 1 | Cc1ccc2nc(CNc3cc(NCc4c(C)cc5c(N)nccc5c4C)ncn3)cn2c1 [Example 333, N^4-((1-amino-5,7-dimethylisoquinolin-6-yl)methyl)-N^6-((6-methylimidazo[1,2-a]pyridin-2-yl)methyl)pyrimidine-4,6-diamine] |
| > 1000 | Cc1cc2c(N)nccc2c(C)c1CNc1cc2c(Cc3ccc4ccccc4c3)cn(C)c2cn1 [Example 524, 5,7-dimethyl-6-(((1-methyl-3-(naphthalen-2-ylmethyl)-1H-pyrrolo[2,3-c]pyridin-5-yl)amino)methyl)isoquinolin-1-amine] |
| < 1 | Cc1cc2c(N)nccc2c(C)c1CNc1cc(C(O)c2cn3cc(C4CC4)ccc3n2)ccn1 (stereo not shown) [Example 453, (2-(((1-amino-5,7-dimethylisoquinolin-6-yl)methyl)amino)pyridin-4-yl)(6-cyclopropylimidazo[1,2-a]pyridin-2-yl)methanol] |
| 100 to 1000 | Cc1ccc2nc(Cn3cc(C(=O)NCc4c(C)cc5c(N(C(=O)OC(C)C)C(=O)OC(C)C)nccc5c4C)cn3)cn2c1 [Example 3, diisopropyl (5,7-dimethyl-6-((1-((6-methylimidazo[1,2-a]pyridin-2-yl)methyl)-1H-pyrazole-4-carboxamido)methyl)isoquinolin-1-yl)iminodicarbonate] |
| 10 to 100 | CCOC(=O)[C@H]1[C@@H]2CN(C(=O)Cc3ccc(Cn4cc(C(=O)NCc5c(C)cc6c(N)nccc6c5C)cn4)cc3)C[C@@H]21 [Example 212, ethyl (1R,SS,6r)-3-(2-(4-((4-(((1-amino-5,7-dimethylisoquinolin-6-y1)methyl)carbamoyl)-1H-pyrazol-1-yl)methyl)phenyl)acetyl)-3-azabicyclo[3.1.0]hexane-6-carboxylate] |
| < 1 | Cc1ccc2nc(Cn3cc(C(=O)NCc4c(C)cc5c(N)nccc5c4C)cn3)cn2c1 [Example 10, N-((1-amino-5,7-dimethylisoquinolin-6-yl)methyl)-1-((6-methylimidazo[1,2-a]pyridin-2-yl)methyl)-1H-pyrazole-4-carboxamide] |
| > 1000 | Cc1nnc(Cc2ccc(CNc3cc(NCc4c(C)cc5c(N)nccc5c4C)ncn3)cc2)s1 [Example 343, N^4-((1-amino-5,7-dimethylisoquinolin-6-yl)methyl)-N^6-(4-((5-methyl-1,3,4-thiadiazol-2-yl)methyl)benzyl)pyrimidine-4,6-diamine] |
| < 1 | Cc1c(CNc2cc(NCc3ccc(Cn4ccccc4=O)cc3)cnn2)ccc2c(N)nccc12 [Example 536, 1-(4-(((6-(((1-amino-5-methylisoquinolin-6-yl)methyl)amino)pyridazin-4-yl)amino)methyl)benzyl)pyridin-2(1H)-one] |
| 1 to 10 | CCOC(=O)CCc1nc(NCc2c(C)cc3c(N)nccc3c2C)cc(OCc2cn3cc(C4CC4)ccc3n2)n1 [Example 274, ethyl 3-(4-(((1-amino-5,7-dimethylisoquinolin-6-yl)methyl)amino)-6-((6-cyclopropylimidazo[1,2-a]pyridin-2-yl)methoxy)pyrimidin-2-yl)propanoate] |
| 1 to 10 | Cc1cc2c(N)nccc2c(C)c1CNc1nccc2cn(Cc3nc4ccc(C5CC5)cn4n3)nc12 [Example 263, 6-(((2-((6-cyclopropyl-[1,2,4]triazolo[1,5-a]pyridin-2-yl)methyl)-2H-pyrazolo[3,4-c]pyridin-7-yl)amino)methyl)-5,7-dimethylisoquinolin-1-amine] |
| < 1 | Cc1cc2c(N)nccc2c(C)c1CNC(=O)c1cnn(Cc2ccc(CC(=O)N(C)C)c(C(F)(F)F)c2)c1 [Example 152, N-((1-amino-5,7-dimethylisoquinolin-6-yl)methyl)-1-(4-(2-(dimethylamino)-2-oxoethyl)-3-(trifluoromethyl)benzyl)-1H-pyrazole-4-carboxamide] |
